Consider six molecules from PMC5458519, “Splicing modulators act at the branch point adenosine binding pocket defined by the PHF5A–SF3b complex” (Nature Communications, 2017).

For experiment [1], the system named is SF3B1 (R1074H). Also noted: method as in PMID 21981285. The following applies: single amino acid substitution R1074H in SF3B1; cited from earlier work.
Experiment [2] has as its system HCT116 cells. Put plainly: 72 h growth inhibition profiling (CellTiter-Glo cellular viability assay), parental HCT116. The class given is cell-based. The following applies: in HCT116. The protocol:
(§1) For CellTiter-Glo analysis, 500 cells were seeded in each well of a 384-well plate the day before compound addition. An 11 pt serial dilution was used starting with a top final dosage of 10 μM for 10 additional doses. DMSO percentage was maintained throughout and a DMSO-only control was included. Seventy-two hours post compound addition, CellTiter-Glo reagent was added to the medium, incubated and assayed on EnVision Multilabel Reader (PerkinElmer). The luminescence value from each treatment sample was normalized to the average value of the respective DMSO control. The dosage response curve plots were generated using Graphpad Prism 6 and fit using nonlinear regression analysis and the log(inhibitor) versus response—Variable slope (four parameters). For heatmap summarization of IC50 shifts, IC50 value was extracted from dosage response curves and the fold changes of IC50 values in PHF5A variants expressing lines over that of the WT lines were calculated and plotted using TIBCO Spotfire software. For IC50s greater than the top dosage, the values were arbitrarily set at 10 μM. Unsupervised clustering analysis was performed in TIBCO Spotfire using the following default parameters: Clustering method: UPGMA; Distance measure: Euclidean; Ordering weight: Average value; Normalization: (None); Empty value replacement: Constant value: 0.

Experiment [3] concerns HCT116 resistant clones (SF3B1-R1074H, SF3B1-V1078A/I, PHF5A-Y36C). As to the kind of experiment: 72 h growth inhibition profiling (CellTiter-Glo) of E7107- and herboxidiene-resistant HCT116 clones. The experiment is classed as cell-based. Conditions: HCT116 clones with SF3B1-R1074H, SF3B1-V1078 or PHF5A-Y36C; 72 h CellTiter-Glo. As for the experimental part: In total, 2.5 million HCT116 cells were seeded in each 10 cm dish and treated with indicated dosages of splicing modulators for 2 weeks. Compounds were refreshed every 4 days. When needed, confluent dishes were split 1:3 and cells were allowed to recover overnight without splicing modulator treatment after re-seeding. At the end of the compound selection period, surviving individual clones were picked and transferred to 12-well plates. Individual resistant clones were further expanded without splicing modulator treatment and one million cells from each clone were pelleted for genomic DNA extraction using the DNeasy Blood & Tissue Kit from Qiagen. WXS libraries were generated by Novogene Corporation using Agilent SureSelect Human All Exon V6 kit and sequenced on Illumina HiSeq platform. 12G raw data were gathered for each sample. WXS reads were then aligned to hg19 by BWA-MEM[40] and somatic mutations were identified with MuTect2 (ref. [41]) through Sentieon pipeline[42] by pairing resistant clone with parental cell lines. As we selected the resistant clones for WXS, the allele frequencies for the mutations which are responsible for the resistance should be high. We focused on non-silent mutations (among the H3 curated spliceosome genes) with allele frequency higher than 0.2.
as §1
In general terms: ATP-based viability assays read luminescence as a measure of living cells.

The subject of experiment [4] is splicing of SLC25A19, EIF4A1 and MCL1. As to the kind of experiment: Taqman gene expression assay (SLC25A19 mRNA, EIF4A1 pre-mRNA, MCL1 isoforms) in PHF5A WT or Y36C HCT116 cells. The experiment is classed as cell-based. The following applies: for induction of MCL1 ES and IR events: PHF5A WT cells, dose response, 4 h. As for the experimental part:
Eight thousand cells of indicated genotypes were seeded in each well of 96-well plate and allowed to settle overnight. On the second day, 11 pt serial dilution (1:4 fold dilution across) of indicated compound with a top dosage of 10 μM final was added to the culturing medium. Four hours post compound addition, culturing medium was decanted and washed once with PBS. PBS was then decanted completely from the plate and Lysis buffer (plus DNase I) from TaqMan Gene Expression Cells-to-CT Kit (Thermo Fisher, cat # AM1729) was added according to the manual. After 5 min incubation at RT on the shaker, stop solution was added to each well and incubated for 2 min. Reverse transcription was set up immediately using the Cells-to-CT Kit and cDNAs were used for quantitative real-time PCR analysis using Viia7 (Thermo Fisher). Each reaction is multiplexed with an FAM-labelled probe targeting specific target gene splicing isoforms and a VIC-labelled probe targeted 18S rRNA as loading control. Therefore, the FAM Ct value in each well was first normalized to the VIC Ct value in the same well before further normalization to the FAM/VIC ratio of DMSO-treated control samples to calculate fold change over DMSO. Graphs were generated using Graphpad Prism 6, n=2. Taqman gene expression probes used in these assays are listed in Supplementary Table 1.

In experiment [5] the test system is PHF5A variant expressing HCT116 cells. Put plainly: 72 h growth inhibition profiling (CellTiter-Glo) of PHF5A WT- or Y36/V37 variant-expressing HCT116 cells. The class given is cell-based. The following applies: HCT116, 72 h. The protocol: (§2) Parental HCT116 cells were obtained from ATCC and cultured in RPMI 1,640 medium (Thermo Fisher, GIBCO#11875) supplemented with 10% fetal bovine serum (FBS). Parental Panc0504 cells were obtained from ATCC and cultured in GIBCO RPMI 1,640 medium (Thermo Fisher, GIBCO#11875) supplemented with glucose (to 4.5 g l^−1 final), HEPES (10 mM final), sodium pyruvate (1 mM final), human insulin (10 μg ml^−1 final) and 15% FBS. Cell line authentication was achieved by genetic profiling using polymorphic short tandem repeat (STR) loci (ATCC). All cell lines were free of mycoplasma contamination. […]
(§3) For CellTiter-Glo analysis, 500 cells were seeded in each well of a 384-well plate the day before compound addition. […] Seventy-two hours post compound addition, CellTiter-Glo reagent was added to the medium, incubated and assayed on EnVision Multilabel Reader (PerkinElmer). The luminescence value from each treatment sample was normalized to the average value of the respective DMSO control. […] For heatmap summarization of IC50 shifts, IC50 value was extracted from dosage response curves and the fold changes of IC50 values in PHF5A variants expressing lines over that of the WT lines were calculated and plotted using TIBCO Spotfire software. […]

The test system of experiment [6] is global splicing (splice junction usage). Put plainly: RNA-seq differential splicing analysis in PHF5A WT or Y36C overexpressing cells. The experiment is classed as cell-based. The following applies: 100 nM. The protocol: Either PHF5A WT or Y36C mutant-overexpressing cells were treated with either DMSO or E7107 (100 nM and 10 μM) for 6 h in hexaplicate before lysed in TRIzol reagent (Thermo Fisher). After phase separation, the top aqueous phase was further processed using MagMAX-96 Total RNA Isolation Kit (Thermo Fisher, AM1830) for RNA extraction. RNA quality was assessed using Agilent tapestation with RNA screen tape. RNA-seq libraries were prepared by Beijing Genomic Institute (BGI) and sequenced on Illumina Hiseq 4,000 for 6G clean reads per sample. RNA-seq reads were aligned to hg19 by STAR[50] and raw junction counts generated by STAR were used for calculating PSI to quantify splice junction usage relative to all other splice junctions that share the same splice site as described before. Differential PSI were assessed between a pair of sample groups using moderated t-test defined in limma package[52] in Bioconductor. […]
The number of reads which cover the splice junction which excludes a given cassette exon (ES reads) are compared with both the number of spliced reads which share its 3′ splice site yet have an alternative 5′ splice site bordering the cassette exon (exon inclusion reads) and the number of reads which cross the exon–intron boundary at that same 3′ splice site (IR reads). […]

Experiment [7] has as its system PANC0504 cells. Put plainly: Growth inhibition of Panc0504 cells expressing PHF5A WT or Y36C. The experiment is classed as cell-based. As for the experimental part:
as §2, §3

pladienolide B: the “effect of SF3B1 R1074H on splicing-modulating and antiproliferative effects” value in experiment [1] is reported as “almost completely abolished”.

For orientation: GI50 means the concentration giving 50% growth inhibition. Consider `CNC(=O)OC(C)C=CC(=O)NC1CCC(CC=C(C)C=CC2CC3(CO3)CC(C)(C)O2)CC1` (stereo not drawn) [sudemycin D6], for which the 50% growth inhibitory concentration (GI50) in experiment [2] was found to be 149 nM. Moreover, the “resistance of resistant clones in growth inhibition profiling” value in experiment [3] is recorded as “SF3B1-R1074H mutation also conferred better resistance”. Also, the “induction of MCL1 ES and IR events” value in experiment [4] is “IR events were not observed”.

Consider `CC(C)C[C@H](NC(=O)[C@H](Cc1ccccc1)NC(=O)c1cnccn1)B(O)O` [bortezomib, Bortezomib], for which, in experiment [5], the “resistance in PHF5A Y36 variant expressing cells” value was “resistance only occurred to the treatment with splicing modulators but not bortezomib”. Also, the “resistance of resistant clones in growth inhibition profiling” value in experiment [3] is recorded as “did not affect the cell lines' sensitivity”.

As to `CC[C@H](O)[C@@H](C)[C@H]1O[C@@H]1C[C@@](C)(O)/C=C/C=C(\C)[C@H]1OC(=O)C[C@H](O)CC[C@@](C)(O)[C@@H](OC(=O)N2CCN(C3CCCCCC3)CC2)/C=C/[C@@H]1C` [E7107], the “effect of SF3B1 R1074H on splicing-modulating and antiproliferative effects” value in experiment [1] is “almost completely abolished”. In addition, in experiment [2] (Homo sapiens, HCT-116), the GI50 worked out at 1.5 nM. The “resistance of resistant clones in growth inhibition profiling” value in experiment [3] is recorded as “SF3B1-R1074H mutation conferred the most robust resistance”. Further, the entries for the “dominant MCL1 splicing event (Sashimi plot of RNA-seq)” value in experiment [6] (PHF5A WT cells) and in experiment [6] (PHF5A Y36C cells) were “IR was the dominant event” and “mainly ES events were observed”, respectively. In addition, in experiment [4], the “induction of MCL1 ES and IR events” value was “‘earlier' induction of MCL1 ES events than IR events at lower doses”. Moreover, the “MCL1-S production (ES events) in PHF5A-Y36C cells compared to WT” value in experiment [4] (increasing dosage) was “enhanced to a higher level”. In experiment [7], the “resistance phenotype on PHF5A Y36C over-expression” value was “partial resistant phenotype”.

On to `COC(C(C)O)C(C)C1OC1(C)CC(C)C=CC=C(C)C1OC(CC(=O)O)CCC1C` (stereo not drawn) [herboxidiene], for which the GI50 in experiment [2] (Homo sapiens, HCT-116) was found to be 7.6 nM. For the same molecule, the “resistance of resistant clones in growth inhibition profiling” value in experiment [3] is listed as “PHF5A-Y36C mutation rendered more resistance”.

As to `CO[C@]1(C)C[C@@]2(CO2)[C@H](O)[C@@H](/C=C/C(C)=C/C[C@@H]2O[C@H](C)[C@H](NC(=O)/C=C\[C@H](C)OC(C)=O)C[C@@H]2C)O1` [spliceostatin A], the GI50 in experiment [2] is 0.76 nM. For the same molecule, the “resistance of resistant clones in growth inhibition profiling” value in experiment [3] is given as “SF3B1-R1074H mutation also conferred better resistance”.
